Legend:
HeLa cells = type: cell-based
[1] = test system: patient-derived mouse xenograft tumors; assay: Speckle signature versus PT2399 sensitivity of patient-derived mouse xenograft ccRCC tumors; type: in vivo
Description: Methods for determining speckle signature and TCGA survival analysis. Four-hundred and forty-six protein genes annotated as “Enhanced”, “Supported”, or “Approved” for subcellular localization within nuclear speckles were identified in The Human Protein Atlas and their upper-quartile normalized RNA expression was extracted from the 30 PanCan TCGA projects that had greater than 50 samples. Principal Component Analysis was then performed on these 446 speckle protein genes. In doing so, each speckle protein gene was assigned a weight (called rotation in the analysis) that was used in the analysis to separate tumor sample along the first Principal Component (PC1). The absolute value of a speckle protein gene PC1 weight thus estimates the contribution of each speckle protein gene to patient variation and the PC1 weight sign, positive or negative, reflects genes that have opposite expression patterns to one another. To compare speckle protein gene expression contributions to patient variation between cancer types, the pairwise Pearson's correlation coefficients of the speckle protein PC1 weights were used. […] With collected ccRCC samples and published drug response studies, speckle scores were calculated using the above formula. […] Then differences in drug responses were calculated using a Fisher's exact test (FIG. 53) or Kaplan Meier statistics (FIG. 54).

ccRCC = ccRCC clinical trial, overall survival by speckle signature, nivolumab versus everolimus; type: in vivo, human; details: nivolumab arm versus everolimus arm
Description: Without wishing to be bound by theory, it is envisioned that having both RNA- and imaging-based methods for measuring speckle phenotypes will assist in the development of cancer- and patient-specific treatment strategies. As a proof-of-concept for a potential use of nuclear speckle phenotyping, a series of studies was undertaken in which speckle signature was correlated with tumor/patient drug response in available data from a human clinical trial and patient-derived mouse xenograft studies.
Thus, contrasting with HIF-2a inhibition, PD1 inhibition may have a greater impact in individuals with Signature II tumors.
Methods for determining speckle signature and TCGA survival analysis. Four-hundred and forty-six protein genes annotated as “Enhanced”, “Supported”, or “Approved” for subcellular localization within nuclear speckles were identified in The Human Protein Atlas and their upper-quartile normalized RNA expression was extracted from the 30 PanCan TCGA projects that had greater than 50 samples. Principal Component Analysis was then performed on these 446 speckle protein genes. In doing so, each speckle protein gene was assigned a weight (called rotation in the analysis) that was used in the analysis to separate tumor sample along the first Principal Component (PC1). The absolute value of a speckle protein gene PC1 weight thus estimates the contribution of each speckle protein gene to patient variation and the PC1 weight sign, positive or negative, reflects genes that have opposite expression patterns to one another. To compare speckle protein gene expression contributions to patient variation between cancer types, the pairwise Pearson's correlation coefficients of the speckle protein PC1 weights were used. In order to obtain a set of speckle protein genes that consistently contributed to patient variation in many cancer types, the rotation signs were flipped so that the speckle protein gene, SON, was always assigned a negative weight. […] Speckle score was then used to separate samples into groups for Kaplan Meier and gene expression analysis between the two groups. With collected ccRCC samples and published drug response studies, speckle scores were calculated using the above formula. In drug-response data (related to FIG. 52), samples with positive speckle scores were considered speckle Signature I and samples with negative speckle scores were considered speckle Signature II. Then differences in drug responses were calculated using a Fisher's exact test (FIG. 53) or Kaplan Meier statistics (FIG. 54).

Q: [Cl-].[Cl-].[Co+2] [CoCl2] was tested. Which “speckle association of the CCND1 gene locus” value (HeLa cells) did it give?
A: The value was “increased speckle association of the CCND1 gene locus”.

Q: Which results are given for N#Cc1cc(F)cc(Oc2ccc(S(=O)(=O)C(F)F)c3c2CC(F)(F)[C@H]3O)c1 [PT2399]?
A: fraction of Signature II tumors sensitive to PT2399 ([1]; xenograft tumors with negative speckle score (Signature II)): ~30%; fraction of Signature I tumors sensitive to PT2399 ([1]; xenograft tumors with positive speckle score (Signature I)): ~75%

Q: Which “overall survival, Signature I patients” value (ccRCC) does the source give for CO[C@H]1C[C@@H]2CC[C@@H](C)[C@@](O)(O2)C(=O)C(=O)N2CCCC[C@H]2C(=O)O[C@H]([C@H](C)C[C@@H]2CC[C@@H](OCCO)[C@H](OC)C2)CC(=O)[C@H](C)/C=C(\C)[C@@H](O)[C@@H](OC)C(=O)[C@H](C)C[C@H](C)/C=C/C=C/C=C/1C [everolimus] here?
A: Its value is “did not differ in overall survival between the two treatment groups”.

Q: And the “overall survival probability, Signature II patients” value (ccRCC)?
A: Its value is “higher overall survival probability when treated with nivolumab compared to everolimus”.

Q: Which “overall survival, Signature I patients” value (ccRCC) does the source give for nivolumab here?
A: Its value is “did not differ in overall survival between the two treatment groups”.

Q: And the “overall survival probability, Signature II patients” value (ccRCC)?
A: The value was “higher overall survival probability when treated with nivolumab compared to everolimus”.

Reference: patent publication US20240254179A1, “Targeting Nuclear Speckles and DNA Speckle Association” (THE TRUSTEES OF THE UNIVERSITY OF PENNSYLVANIA, priority 2023, published 2024)
